These results are taken from patent US4189499A, “Lysine 4-allyloxy-3-chlorophenylacetate and method of its preparation” (priority 1979, dated 1980).

Values joined by “and” are separate entries in the source; they are usually repeats but may differ in a detail not shown here. Equal values may be shown once. “Also recorded” adds a separate entry of the source. Where a name gives a salt, the structure may show the parent alone. Read-outs that look alike come from different tables or passages of the source.

The conditions of data set [1]: intravenous route, prior knowledge; cited from earlier work.
A short description of data set [2]: Stability and hygroscopicity. The data set is classed as physicochemical. To be noted: for Stability of the solution: in words; for Hygroscopicity: isolated solid.
The next data set is described as follows: pH of aqueous solution. The data set is classed as physicochemical. To be noted: aqueous solution as prepared.
Data set [3] concerns rabbit dorsal long muscle. Put plainly: Local tolerability after intramuscular injection, muscle removed at 24 hours, irritation by arbitrary scores. The data set is classed as in vivo. More on the design: scale not given here. How it is done: Such a tolerability was estimated after injection of equivalent solutions of the various preparations, effected in the rabbit dorsal long muscle, removing muscle 24 hours after injection and estimating the degree of induced irritation through arbitrary scores.

Data set [4] is described as follows: General tolerability by route of administration. Format: in vivo. The settings on record: intravenous or intramuscular; listed as Mono-ethanolamine solution.
The conditions of data set [5]: cited from earlier work.
Data set [6] in a line: Pharmacokinetics from plasma levels after oral, rectal and intramuscular administration in rabbits. Format: in vivo, rabbit. To be noted: for Ka / t1/2α / CL/F / k el / Cmax / Vd/F / half-life / Tmax: ± E.S.M.; for CL/F / k el / Cmax / Vd/F / half-life / Tmax: rabbit, plasma; for Cmax: read-out: Cmax; for Vd/F: read-out: Vdβ; for half-life: read-out: t1/2β; for Tmax: read-out: tmax (converted). The procedure:
(§1) The following pharmacological experimentation was carried out in order to estimate the comparative absorption and bioavailability through various administration routes in rabbits of Alclofenac acid and its lysine salt.

A short description of data set [7]: Extent of availability after different routes, intravenous administration as reference. To be noted: i.v. as reference. The data set is classed as in vivo, rabbit. How it is done: as §1
A further data set is described as follows: Solubility. The settings on record: in words, solvent as stated. The data set is classed as physicochemical.
Where [8] appears, read: listed as Mono-ethanolamine solution.
Setting [9] is: 100 mg/ml (as acid), 0.25 ml injected.
Setting [10] is: 100 mg/ml (as acid), 0.5 ml injected.
Where [11] appears, read: 131 mg/ml (as acid), 0.25 ml injected.

As for `C=CCOc1ccc(CC(=O)O)cc1Cl` [sodic salt of the acid], the tolerability of injection result in [1] was “scarcely tolerated”.
As to `C=CCOc1ccc(CC(=O)O)cc1Cl` [Alclofenac-Ethanolamine], the “Stability of the solution” value in data set [2] (setting [8]) was “stable”. In the data set “pH of aqueous solution” (setting [8]), this compound yielded a pH of solution of 7.5. In addition, in [3] (setting [9]), the “SCORES at 24 hours, Average” value is reported as 3; the “SCORES at 24 hours, individual” value is 3 and 3.5 and 2.5. For the same compound, the tolerability on injection entry in [4] was “poor tolerability”.
For `C=CCOc1ccc(CC(=O)O)cc1Cl` [Alclofenac, 4-allyloxy-3-chlorophenylacetic acid, reference compound], in data set [5] (in vivo), the antiinflammatory properties result is given as “antiinflammatory properties”. Moreover, the analgesic activity entry in data set [5] (versus acetylsalicylic acid) is “marked analgesic activity, higher than acetylsalicylic acid”. In data set [6] (P.OS 90 mg/kg), this compound came in with a Ka of 0.0146 ± 0.0018 min⁻¹ and a t1/2α of 0.85 ± 0.083333 h. In [6] (RECTAL 100 mg/kg), this compound gave a Ka of 0.053 ± 0.10 min⁻¹ and a t1/2α of 0.233 ± 0.05 h. Also, in data set [6] (oral and rectal route, rabbits), the “absorption, in words” value was “well absorbed through the oral and rectal route”. Besides, in data set [6] (100 mg/kg, RECTAL 100 mg/kg), the CL/F turned out to be 0.54 ± 0.04 mL/min/kg, the k el was 3.83e-05 s⁻¹, the Cmax was 425 ± 11.9 µg/mL and the Vd/F was found to be 0.274 ± 0.06 L/kg. In [6] (100 mg/kg, RECTAL 100 mg/kg), the half-life stood at 5.12 ± 0.583 h and the Tmax is 1.1 h. In [6] (po, 90 mg/kg, P.OS 90 mg/kg), the CL/F amounted to 0.64 ± 0.06 mL/min/kg, the k el was 3e-05 s⁻¹, the Cmax was found to be 358 ± 47.8 µg/mL and the Vd/F was determined as 0.326 ± 0.045 L/kg. In [6] (po, 90 mg/kg, P.OS 90 mg/kg), the half-life worked out at 6.9 ± 0.667 h and the Tmax is 2.88 h. For the same compound, in [7] (P.O. 90 mg/kg, 0-4 h, 90 mg/kg, 240 min), the “% Availability (AUC o → 4h)” value turned out to be 42.4%. Further, in [7] (P.O. 90 mg/kg, 90 mg/kg), the “% Availability (practical AUC)” value came to 84.0% and the “% Availability (theoretical AUC)” value is on record as 89.2%. In addition, in data set [7] (Rectal 100 mg/kg, 0-2 h, 100 mg/kg, 120 min), the “% Availability (AUC o → 2h)” value worked out at 83.24%. Besides, in [7] (Rectal 100 mg/kg, 100 mg/kg), the “% Availability (practical AUC)” value was 105.7% and the “% Availability (theoretical AUC)” value is given as 87.2%. Moreover, the Solubility result in “Solubility” is given as “insoluble in the physiological fluids; also recorded: insolubility”.
As to `C=CCOc1ccc(CC(=O)O)cc1Cl` [Alclofenac-Methylglucose], in [2] (listed as Methylglucamine salt), the “Stability of the solution” value is on record as “not very stable” and the Hygroscopicity result is recorded as “very hygroscopic”. Further, in data set [3] (setting [9]), the “SCORES at 24 hours, Average” value came out at 2; the “SCORES at 24 hours, individual” value was 0 and 3 (2×). For the same compound, in data set [3] (setting [10]), the “SCORES at 24 hours, Average” value amounted to 5.4; the “SCORES at 24 hours, individual” value is 2 and 5 and 10 and 4.5.
As for `C=CCOc1ccc(CC(=O)O)cc1Cl` [Alclofenac-Arginine], in data set [2] (listed as Arginine salt), the Hygroscopicity result is given as “non-hygroscopic”. The pH of solution in the data set “pH of aqueous solution” (listed as Arginine salt) was 7.7. For the same compound, the results for the “SCORES at 24 hours, Average” value in [3] (setting [10]) and in data set [3] (setting [11]) were 3.9 and 1.6, respectively. Besides, the “SCORES at 24 hours, individual” value is 6.5 and 2.5 and 3 and 3.5 in data set [3] (setting [10]); 1.5 and 3.5 and 3 and 0 in [3] (setting [11]). Further, in “Solubility” (listed as Arginine salt), the Solubility entry is “scarcely water soluble”.

Usually CL/F stands for the apparent clearance, not corrected for the fraction that reaches the circulation. One may read the Cmax as the highest concentration seen after dosing. A word on the Tmax: it is the time at which the peak concentration occurs.
